Experimental findings from ChEMBL document CHEMBL6178018, “Design of an Oral STING Agonist through Intramolecular Hydrogen Bond Ring Mimicking to Achieve Complete Tumor Regression” (J Med Chem, 2025) are described below.

Active and inactive are the calls of the source. The rule behind the calls is not given here. A value given as a limit tells only on which side of the number the result lay.

Series [1] in a line: Half life in mouse at 5 mg/kg, iv by LC-MS/MS analysis. The conditions noted are these: in vivo. The class given is ADME, organism-based.
In series [2] the test system is MC-38. The series can be described thus: In vivo antitumor activity against mouse MC-38 cells inoculated in C57BL/6 mouse assessed as increase in IL-6 level in serum at 60 mg/kg, po Q3D co-administered with anti-PD1 measured for 15 to 20 days. The class given is functional, organism-based. The conditions noted are these: time 15-20 day.
Series [3] can be described thus: Cmax in mouse at 5 mg/kg, iv by LC-MS/MS analysis. The class given is ADME, organism-based. The conditions noted are these: in vivo.
The nature of series [4]: Half life in mouse at 10 mg/kg, po by LC-MS/MS analysis. The series is classed as ADME, organism-based. The following applies: in vivo.
Series [5] can be described thus: Stability of the compound in human plasma assessed as half life by LC-MS/MS analysis. The series is classed as ADME, cell-free.
A short description of series [6]: Metabolic stability in human liver microsomes assessed as half life at 10 uM measured up to 60 mins by LC-MS/MS analysis. The series is classed as ADME, Microsome.
For series [7], the target named is T1, Stimulator of interferon genes protein (Mus musculus, UniProt Q3TBT3).
T1 sequence (Q3TBT3 whole entry): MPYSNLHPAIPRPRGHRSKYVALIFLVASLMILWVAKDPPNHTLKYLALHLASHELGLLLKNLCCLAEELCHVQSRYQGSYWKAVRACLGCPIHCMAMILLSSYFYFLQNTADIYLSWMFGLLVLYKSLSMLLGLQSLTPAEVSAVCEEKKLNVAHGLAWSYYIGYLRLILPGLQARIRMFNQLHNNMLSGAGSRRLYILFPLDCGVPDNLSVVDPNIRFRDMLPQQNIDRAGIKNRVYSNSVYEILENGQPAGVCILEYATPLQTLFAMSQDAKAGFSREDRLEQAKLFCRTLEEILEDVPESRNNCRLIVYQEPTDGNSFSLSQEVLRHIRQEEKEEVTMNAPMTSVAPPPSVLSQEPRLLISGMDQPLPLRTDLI
The series can be described thus: Agonist activity at mouse STING expressed in human THP1-Dual cells assessed as fold change in stimulation activity measured after 24 hrs incubation by QUANTI-Luc4 based microplate reader. The class given is cell-based.

Series [8] deals with MC-38. In words: In vivo antitumor activity against mouse MC-38 cells inoculated in C57BL/6 mouse assessed as complete tumor regression (CR) at 60 mg/kg, po Q3D measured for 15 to 20 days. The following applies: time 15-20 day. The class given is functional, organism-based.
A short description of series [9]: AUC in mouse at 5 mg/kg, iv by LC-MS/MS analysis. The class given is ADME, organism-based. The conditions noted are these: in vivo.
Series [10] deals with THP-1. In words: Induction of interferon secretion in human THP-1 cells assessed as IFN-beta level at 13 uM measured after 24 hrs by ELISA. The series is classed as functional, cell-based.
Series [11] in a line: Cmax in mouse at 10 mg/kg, po by LC-MS/MS analysis. The series is classed as ADME, organism-based. The conditions noted are these: in vivo.
Series [12] in a line: Metabolic stability in mouse liver microsomes assessed as half life at 10 uM measured up to 60 mins by LC-MS/MS analysis. The class given is ADME, Microsome.
Series [13] deals with MC-38. In words: In vivo antitumor activity against mouse MC-38 cells inoculated in C57BL/6 mouse assessed as increase in IFN-gamma level in tumor at 60 mg/kg, po Q3D co-administered with anti-PD1 measured for 15 to 20 days. The series is classed as functional, organism-based. The conditions noted are these: time 15-20 day.
In series [14] the test system is MC-38. The series can be described thus: In vivo antitumor activity against mouse MC-38 cells inoculated in C57BL/6 mouse assessed as increase in CXCL10 level in tumor at 60 mg/kg, po Q3D co-administered with anti-PD1 measured for 15 to 20 days. The class given is functional, organism-based. The conditions noted are these: time 15-20 day.
Series [15] in a line: Chemical stability of the compound in MeOH/H2O solvent assessed as half life by LC-MS/MS analysis. The series is classed as physicochemical.
Series [16] concerns MC-38. The series can be described thus: In vivo antitumor activity against mouse MC-38 cells inoculated in C57BL/6 mouse assessed as as increase in moue survival time at 60 mg/kg, po Q3D measured for 15 to 20 days. The series is classed as functional, organism-based. The following applies: time 15-20 day.
Series [17] has as its system MC-38. In words: In vivo antitumor activity against mouse MC-38 cells inoculated in C57BL/6 mouse assessed as increase in IFN-gamma level in serum at 60 mg/kg, po Q3D co-administered with anti-PD1 measured for 15 to 20 days. The series is classed as functional, organism-based. The following applies: time 15-20 day.
Series [18] is described as follows: Oral bioavailability in mouse at 10 mg/kg by LC-MS/MS analysis. The series is classed as ADME, organism-based. The following applies: in vivo.
A short description of series [19]: Stability of the compound in mouse plasma assessed as half life by LC-MS/MS analysis. The series is classed as ADME, cell-free.
In another series the test system is THP1-Blue ISG. In words: Induction of STING phosphorylation in human THP1-Blue ISG cells at 13 to 50 uM measured after 3 hrs by Western blot analysis. The series is classed as cell-based. The following applies: filed as agonist, dose 13-50 µM.
Series [20] has as its system MC-38. The series can be described thus: In vivo antitumor activity against mouse MC-38 cells inoculated in C57BL/6 mouse assessed as increase in IL-6 level in tumor at 60 mg/kg, po Q3D co-administered with anti-PD1 measured for 15 to 20 days. The series is classed as functional, organism-based. The following applies: time 15-20 day.
Series [21] concerns the target T2, Stimulator of interferon genes protein (Homo sapiens, UniProt Q86WV6). In words: Agonist activity at human STING HAQ variant in human THP1-Blue ISG cells assessed as fold change in stimulation activity measured after 24 hrs incubation by QUANTI-Blue based microplate reader. The series is classed as cell-based.
Target sequence in this assay (Q86WV6 whole entry, looked up, change not shown): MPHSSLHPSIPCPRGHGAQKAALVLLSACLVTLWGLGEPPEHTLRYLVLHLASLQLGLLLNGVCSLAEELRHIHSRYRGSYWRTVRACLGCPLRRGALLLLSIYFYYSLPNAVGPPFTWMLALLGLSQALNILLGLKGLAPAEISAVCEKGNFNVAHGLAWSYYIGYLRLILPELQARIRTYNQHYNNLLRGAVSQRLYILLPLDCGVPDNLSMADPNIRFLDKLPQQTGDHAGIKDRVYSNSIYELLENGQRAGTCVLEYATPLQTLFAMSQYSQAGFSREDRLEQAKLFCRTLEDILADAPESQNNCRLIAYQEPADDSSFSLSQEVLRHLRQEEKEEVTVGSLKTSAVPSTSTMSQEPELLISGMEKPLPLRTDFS
The nature of series [22]: AUC in mouse at 10 mg/kg, po by LC-MS/MS analysis. The class given is ADME, organism-based. The following applies: in vivo.
For series [23], the system named is MC-38. The series can be described thus: In vivo antitumor activity against mouse MC-38 cells inoculated in C57BL/6 mouse assessed as increase in CXCL10 level in serum at 60 mg/kg, po Q3D co-administered with anti-PD1 measured for 15 to 20 days. The class given is functional, organism-based. The following applies: time 15-20 day.
Series [24] is described as follows: Clearance in mouse at 5 mg/kg, iv by LC-MS/MS analysis. The class given is ADME, organism-based. The following applies: in vivo.
In series [25] the test system is THP-1. The series can be described thus: Induction of interferon response in STING knock out human THP-1 cells assessed as fold change in stimulation activity at 13 to 25 uM measured after 24 hrs incubation by QUANTI-Luc4 based microplate reader. The series is classed as functional, cell-based. The following applies: dose 13-25 µM.
Series [26] has as its system MC-38. The series can be described thus: In vivo antitumor activity against mouse MC-38 cells inoculated in C57BL/6 mouse assessed as increase in moue survival time at 60 mg/kg, po Q3D co-administered with anti-PD1 measured for 15 to 20 days. The series is classed as functional, organism-based. The following applies: time 15-20 day.
Series [27] deals with T2, Stimulator of interferon genes protein. In words: Agonist activity at STING R232 mutant (unknown origin) expressed in human THP1-Dual cells assessed as fold change in stimulation activity measured after 24 hrs incubation by QUANTI-Luc4 based microplate reader. The series is classed as cell-based.
Target sequence in this assay (Q86WV6 whole entry, looked up, change not shown): as above
The subject of series [28] is MC-38. In words: In vivo antitumor activity against mouse MC-38 cells inoculated in C57BL/6 mouse assessed as complete tumor regression (CR) at 60 mg/kg, po Q3D co-administered with anti-PD1 measured for 15 to 20 days. The series is classed as functional. The following applies: time 15-20 day.
Series [29] addresses T3, Interferon regulatory factor 3 (Homo sapiens) (UniProt Q14653).
T3 sequence (whole entry): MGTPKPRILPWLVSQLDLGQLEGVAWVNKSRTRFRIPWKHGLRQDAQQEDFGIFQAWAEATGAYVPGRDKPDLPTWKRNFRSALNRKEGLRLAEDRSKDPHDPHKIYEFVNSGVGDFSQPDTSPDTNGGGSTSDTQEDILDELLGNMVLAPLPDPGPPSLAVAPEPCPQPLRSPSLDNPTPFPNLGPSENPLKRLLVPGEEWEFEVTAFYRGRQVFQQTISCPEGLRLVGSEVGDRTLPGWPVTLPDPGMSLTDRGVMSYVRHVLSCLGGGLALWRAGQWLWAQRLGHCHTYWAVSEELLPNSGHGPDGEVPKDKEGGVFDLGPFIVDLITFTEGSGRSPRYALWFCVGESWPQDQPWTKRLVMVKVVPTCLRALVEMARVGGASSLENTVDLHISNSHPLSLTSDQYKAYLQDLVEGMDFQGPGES
In words: Induction of IRF3 phosphorylation in human THP1-Blue ISG cells at 13 to 50 uM measured after 3 hrs by Western blot analysis. The class given is cell-based. The following applies: filed as agonist, dose 13-50 µM.

The nature of series [30]: Clearance in mouse at 10 mg/kg, po by LC-MS/MS analysis. The class given is ADME, organism-based. The following applies: in vivo.
The subject of series [31] is MC-38. In words: In vivo antitumor activity against mouse MC-38 cells inoculated in C57BL/6 mouse assessed as long-term immunological memory by measuring tumor recurrence at 60 mg/kg, po Q3D measured for 15 to 20 days followed by cured rechallenged with MC-38 cells after 84 days of first dose and measured for additional 74 days (total 157 days observation). The series is classed as functional, organism-based. The conditions noted are these: time 157.0 day.

Series [32] relates to MC-38. The series can be described thus: In vivo antitumor activity against mouse MC-38 cells inoculated in C57BL/6 mouse assessed as complete tumor regression (CR) at 60 mg/kg, po two doses measured for 15 to 20 days relative to total number of mouse. The series is classed as functional. The following applies: time 15-20 day.
Series [33] has as its target T2, Stimulator of interferon genes protein. In words: Binding affinity to wild type His-tagged STING (unknown origin) measured after 3 hrs incubation by HTRF assay.
Target sequence in this assay (Q86WV6 whole entry): as the sequence (Q86WV6 whole entry, looked up, change not shown) above

Turning to `CC[C@H](CNC(=O)c1[se]c2cc(OC)c(OC)cc2c1F)C(=O)O`, the half-life in series [1] was 0.6 h; in series [4], 1.1 h; in [5], above 1 h; in series [15], 0.8 h; in [19], above 1 h. Moreover, the result in the series on MC-38 [2], in the series on MC-38 [8], in the series on THP-1 [10], with MC-38 [13], in the series on MC-38 [14] and with MC-38 [16] was Active. Moreover, the outcome (in the series on MC-38 [17]; in the series with THP1-Blue ISG; in the series on MC-38 [20]; in the series with MC-38 [23]; in the series with MC-38 [26]; in [29]) was Active. Further, the result in the series with MC-38 [31] was Active. Moreover, the highest concentration (Cmax) turned out to be 48.4 µg/mL in series [3] and 20.6 µg/mL in [11]. The half-life at 10 µM in series [6] and in [12] was above 1 h in each case. Further, the results for the EC50 in [7], in [21] and in series [27] were 9.3 µM, 3.3 µM and 9 µM, respectively. The figures for the exposure (AUC) in [9] and in [22] were 20.6 µg·h/mL and 23.8 µg·h/mL, respectively. In [18], this compound returned a bioavailability of 58%. In [24], this compound gave a clearance of 0.242 L/h/kg. In addition, in the series on THP-1 [25], the result was inactive. In addition, the Activity result in the series with MC-38 [28] is on record as “Active; Compound Effect Significantly Exceeded Than Its Parent Compound Zsa-52 (Cr = 60%)”; in the series on MC-38 [32] it was 60%. Moreover, the CL/F in series [30] is 0.417 L/h/kg.

On to `COc1cc2cc(C(=O)CCC(=O)O)sc2cc1OC`, for which the half-life was 0.3 h in series [1] and 1.5 h in [4]. Moreover, the results for the Cmax in series [3] and in series [11] were 25.1 µg/mL and 13.4 µg/mL, respectively. Moreover, the EC50 in [7] amounted to 8.1 µM; in series [21] it was 4.4 µM; in series [27], 8.8 µM. The result with MC-38 [8] and in the series with MC-38 [16] was inactive. In addition, the area under the curve (AUC) in series [9] amounted to 7.26 µg·h/mL; in [22], 7.57 µg·h/mL. The compound also displayed a concentration for half-maximal inhibition (IC50) in series [33] of 22.5 µM. This compound also gave a bioavailability in series [18] of 52%. Also, the clearance in series [24] was 0.688 L/h/kg. Moreover, the apparent clearance (CL/F) in series [30] is 1.32 L/h/kg.
